Molecular target: Alpha-glucosidase MAL32 (Saccharomyces cerevisiae (strain ATCC 204508 / S288c), UniProt P38158)
Experiment: In Vitro α-Glucosidase Inhibitory Assay
Conditions: pH 6.8
Description: The test compounds were dissolved in DMSO to prepare the required distributing concentration. α-Glucosidase inhibitory activity was assayed using 0.1 m phosphate buffer (pH 6.8) at 37°C. The enzyme (0.1 U/ml) in phosphate-buffered saline was incubated with various concentrations of test compounds at 37°C for 15 min. Then, 1.25 mm p-nitrophenyl α-D-glucopyranoside was added to the mixture as a substrate.After further incubation at 37°C for 30 min, the absorbance was measured spectrophotometrically at 405 nm. The sample solution was replaced by DMSO as a control. Acarbose was used as a positive control. All experiments were carried out in triplicates.

Alpha-glucosidase MAL32, sequence (P38158 whole entry): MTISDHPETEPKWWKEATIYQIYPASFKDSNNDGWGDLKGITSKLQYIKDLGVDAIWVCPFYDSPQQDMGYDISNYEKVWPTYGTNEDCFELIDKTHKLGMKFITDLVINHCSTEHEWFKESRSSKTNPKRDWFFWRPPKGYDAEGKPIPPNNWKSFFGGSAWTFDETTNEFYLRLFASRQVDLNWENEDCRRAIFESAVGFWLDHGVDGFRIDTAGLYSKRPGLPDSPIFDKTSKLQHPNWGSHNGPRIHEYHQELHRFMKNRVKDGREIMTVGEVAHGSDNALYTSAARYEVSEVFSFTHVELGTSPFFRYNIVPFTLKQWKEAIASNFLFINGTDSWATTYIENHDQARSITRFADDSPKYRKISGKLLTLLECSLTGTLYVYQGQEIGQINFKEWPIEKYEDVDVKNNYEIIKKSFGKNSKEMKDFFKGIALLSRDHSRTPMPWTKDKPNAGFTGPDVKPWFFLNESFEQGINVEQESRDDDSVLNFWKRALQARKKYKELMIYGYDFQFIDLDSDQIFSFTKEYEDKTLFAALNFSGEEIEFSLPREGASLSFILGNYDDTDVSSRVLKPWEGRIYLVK

SMILES | IC50
O=C(COc1ccc2ccc(=O)oc2c1)N/N=C1\C(=O)Nc2ccccc21 [(Z)-2-((2-oxo-2H-chromen-7-yl)oxy)-N'-(2-oxoindolin-3-ylidene)acetohydrazide (5a)] | 187 µM
O=C(COc1ccc2ccc(=O)oc2c1)N/N=C1\C(=O)N(Cc2ccccc2Cl)c2ccccc21 [(Z)-N'-(1-(2-chlorobenzyl)-2-oxoindolin-3-ylidene)-2-((2-oxo-2H-chromen-7-yl)oxy)acetohydrazide (5l)] | 7.31 µM
O=C(COc1ccc2ccc(=O)oc2c1)N/N=C1\C(=O)N(Cc2ccccc2F)c2ccccc21 [(Z)-N'-(1-(2-fluorobenzyl)-2-oxoindolin-3-ylidene)-2-((2-oxo-2H-chromen-7-yl)oxy)acetohydrazide (5j)] | 7.37 µM
Cc1ccc2c(c1)/C(=N/NC(=O)COc1ccc3ccc(=O)oc3c1)C(=O)N2Cc1ccccc1F [(Z)-N'-(1-(2-fluorobenzyl)-5-methyl-2-oxoindolin-3-ylidene)-2-((2-oxo-2H-chromen-7-yl)oxy)acetohydrazide (5n)] | 66.8 µM
O=C(COc1ccc2ccc(=O)oc2c1)N/N=C1\C(=O)N(Cc2cccc(F)c2)c2ccccc21 [(Z)-N'-(1-(3-fluorobenzyl)-2-oxoindolin-3-ylidene)-2-((2-oxo-2H-chromen-7-yl)oxy)acetohydrazide (5k)] | 9.33 µM
Cc1ccc2c(c1)/C(=N/NC(=O)COc1ccc3ccc(=O)oc3c1)C(=O)N2Cc1cccc(F)c1 [(Z)-N'-(1-(3-fluorobenzyl)-5-methyl-2-oxoindolin-3-ylidene)-2-((2-oxo-2H-chromen-7-yl)oxy)acetohydrazide (5o)] | 77.8 µM
O=C(COc1ccc2ccc(=O)oc2c1)N/N=C1\C(=O)N(Cc2ccc(Br)cc2)c2ccccc21 [(Z)-N'-(1-(4-bromobenzyl)-2-oxoindolin-3-ylidene)-2-((2-oxo-2H-chromen-7-yl)oxy)acetohydrazide (5m)] | 4.07 µM
O=C(COc1ccc2ccc(=O)oc2c1)N/N=C1\C(=O)N(Cc2ccccc2)c2ccccc21 [(Z)-N'-(1-benzyl-2-oxoindolin-3-ylidene)-2-((2-oxo-2H-chromen-7-yl)oxy)acetohydrazide (5i)] | 14.1 µM
O=C(COc1ccc2ccc(=O)oc2c1)N/N=C1\C(=O)N(Cc2ccccc2)c2ccc(Br)cc21 [(Z)-N'-(1-benzyl-5-bromo-2-oxoindolin-3-ylidene)-2-((2-oxo-2H-chromen-7-yl)oxy)acetohydrazide (5r)] | 4.48 µM
CN1C(=O)/C(=N\NC(=O)COc2ccc3ccc(=O)oc3c2)c2ccccc21 [(Z)-N'-(1-methyl-2-oxoindolin-3-ylidene)-2-((2-oxo-2H-chromen-7-yl)oxy)acetohydrazide (5h)] | 269 µM
Cc1cc(C)c2c(c1)/C(=N/NC(=O)COc1ccc3ccc(=O)oc3c1)C(=O)N2 [(Z)-N'-(5,7-dimethyl-2-oxoindolin-3-ylidene)-2-((2-oxo-2H-chromen-7-yl)oxy)acetohydrazide (5c)] | 197 µM
O=C(COc1ccc2ccc(=O)oc2c1)N/N=C1\C(=O)N(Cc2ccccc2Cl)c2ccc(Br)cc21 [(Z)-N'-(5-bromo-1-(2-chlorobenzyl)-2-oxoindolin-3-ylidene)-2-((2-oxo-2H-chromen-7-yl)oxy)acetohydrazide (5s)] | 2.85 µM
O=C(COc1ccc2ccc(=O)oc2c1)N/N=C1\C(=O)N(Cc2ccc(Br)cc2)c2ccc(Br)cc21 [(Z)-N'-(5-bromo-1-(4-bromobenzyl)-2-oxoindolin-3-ylidene)-2-((2-oxo-2H-chromen-7-yl)oxy)acetohydrazide (5t)] | 3.98 µM
O=C(COc1ccc2ccc(=O)oc2c1)N/N=C1\C(=O)Nc2ccc(Br)cc21 [(Z)-N'-(5-bromo-2-oxoindolin-3-ylidene)-2-((2-oxo-2H-chromen-7-yl)oxy)acetohydrazide (5f)] | 14.2 µM
O=C(COc1ccc2ccc(=O)oc2c1)N/N=C1\C(=O)N(Cc2ccccc2F)c2ccc(Cl)cc21 [(Z)-N'-(5-chloro-1-(2-fluorobenzyl)-2-oxoindolin-3-ylidene)-2-((2-oxo-2H-chromen-7-yl)oxy)acetohydrazide (5p)] | 2.56 µM
O=C(COc1ccc2ccc(=O)oc2c1)N/N=C1\C(=O)N(Cc2cccc(F)c2)c2ccc(Cl)cc21 [(Z)-N'-(5-chloro-1-(3-fluorobenzyl)-2-oxoindolin-3-ylidene)-2-((2-oxo-2H-chromen-7-yl)oxy)acetohydrazide (5q)] | 2.88 µM
O=C(COc1ccc2ccc(=O)oc2c1)N/N=C1\C(=O)Nc2ccc(Cl)cc21 [(Z)-N'-(5-chloro-2-oxoindolin-3-ylidene)-2-((2-oxo-2H-chromen-7-yl)oxy)acetohydrazide (5e)] | 153 µM
O=C(COc1ccc2ccc(=O)oc2c1)N/N=C1\C(=O)Nc2ccc(F)cc21 [(Z)-N'-(5-fluoro-2-oxoindolin-3-ylidene)-2-((2-oxo-2H-chromen-7-yl)oxy)acetohydrazide (5d)] | 12 µM
Cc1ccc2c(c1)/C(=N/NC(=O)COc1ccc3ccc(=O)oc3c1)C(=O)N2 [(Z)-N'-(5-methyl-2-oxoindolin-3-ylidene)-2-((2-oxo-2H-chromen-7-yl)oxy)acetohydrazide (5b)] | 114 µM
O=C(COc1ccc2ccc(=O)oc2c1)N/N=C1\C(=O)Nc2ccc([N+](=O)[O-])cc21 [(Z)-N'-(5-nitro-2-oxoindolin-3-ylidene)-2-((2-oxo-2H-chromen-7-yl)oxy)acetohydrazide (5g)] | 9.47 µM
